Results published in publication PMC5150537 (Nature Communications, 2016).

Biological target: T1, TmPPase (Thermotoga maritima, UniProt Q9S5X0)
T1 construct: gene hppA; N-terminally His6-tagged, plasmid pRS1024, expressed in Saccharomyces cerevisiae BJ1991, OGNPG-solubilised, homodimer
T1 sequence (Q9S5X0 1-726 limits assumed): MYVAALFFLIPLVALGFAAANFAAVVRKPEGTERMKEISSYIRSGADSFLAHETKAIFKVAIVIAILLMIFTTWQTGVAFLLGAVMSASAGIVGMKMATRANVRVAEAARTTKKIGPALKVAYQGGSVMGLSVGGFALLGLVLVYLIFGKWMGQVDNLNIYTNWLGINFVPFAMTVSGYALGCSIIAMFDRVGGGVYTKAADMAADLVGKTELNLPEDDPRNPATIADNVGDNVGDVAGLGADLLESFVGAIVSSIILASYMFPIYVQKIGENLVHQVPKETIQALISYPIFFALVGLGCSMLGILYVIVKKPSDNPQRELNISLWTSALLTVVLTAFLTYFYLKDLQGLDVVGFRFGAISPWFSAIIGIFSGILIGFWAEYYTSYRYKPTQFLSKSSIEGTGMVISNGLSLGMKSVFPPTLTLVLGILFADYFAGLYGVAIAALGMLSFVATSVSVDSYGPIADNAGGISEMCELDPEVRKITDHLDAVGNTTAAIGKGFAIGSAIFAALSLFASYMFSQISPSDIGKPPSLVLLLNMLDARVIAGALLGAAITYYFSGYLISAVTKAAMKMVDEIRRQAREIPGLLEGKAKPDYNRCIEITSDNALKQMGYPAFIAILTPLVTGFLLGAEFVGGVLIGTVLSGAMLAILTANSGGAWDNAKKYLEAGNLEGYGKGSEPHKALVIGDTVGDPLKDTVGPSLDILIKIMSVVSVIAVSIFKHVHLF
Assay: X-ray crystallography, […] Å
Assay type: binding
Details: active site, as Mg5IDP complex; Na+ bound at ion gate; pH 8.5 well solution; non-hydrolysable substrate analogue

With O=P(O)(O)NP(=O)(O)O [IDP, imidodiphosphate] the “X-ray crystallography, 3.5 Å” value was “In TmPPase:IDP, an Mg5IDP-complex was fit into the positive Fo–Fc density in the hydrolytic centre”.
